Results published in US20110081410A1, “THERAPEUTIC AGENT FOR LOCAL INFLAMMATION” (ST. MARIANNA UNIVERSITY, SCHOOL OFMEDICINE, priority 2005, published 2011).

Tested on: Synovial cells from OA patients
Conditions: retinoic acid 0.05%, 6 hours after addition, colloidal iron staining
Protocol: Synovial cells from OA patients were cultured, and the retinoic acid nanocapsule containing calcium carbonate as an ingredient of the capsule produced in Example 1, and retinoic acid (atRA) were added thereto. Six hours after the addition, colloidal iron staining was performed to confirm the status of hyaluronic acid production. The evaluation groups were: DMSO as control, atRA, and the retinoic acid nanocapsule. The concentration of added retinoic acid was set 0.05% in both groups of atRA and retinoic acid nanocapsule.

Q: How did the Hyaluronic acid production turn out when `CC1=C(/C=C/C(C)=C/C=C/C(C)=C/C(=O)O)C(C)(C)CCC1` [atRA, All-trans retinoic acid] was run?
A: The Hyaluronic acid production was “confirmed”.
